EC50, CC50 and Activity data for 26 molecules are collected here from ChEMBL document CHEMBL1152823, “Identification of novel epoxide inhibitors of hepatitis C virus replication using a high-throughput screen” (Antimicrob Agents Chemother, 2007).

Series [1] deals with Hepatitis C virus. The series can be described thus: Antiviral activity against HCV replication in human HuH7 cells expressing Rep-Feo replicon by luciferase assay. Conditions: Huh-7. The series is classed as functional, organism-based, Hepacivirus hominis. A general note: Replicon systems follow genome replication, usually without infectious particles.
Series [2] can be described thus: Cytotoxicity against human HuH7 cells. The class given is cell-based, Huh-7.
Series [3] deals with Hepatitis C virus. The series can be described thus: Antiviral activity against HCV JFH1 replication in human Huh7.5.1 cells at 5 uM after 48 hrs by quantitative RT-PCR analysis relative to 1 ng/ml interferon. The series is classed as functional, Hepacivirus hominis, JFH-1, Huh-7.
Series [4] deals with Hepatitis C virus. The series can be described thus: Antiviral activity against HCV JFH1 replication in human Huh7.5.1 cells at 1 uM after 48 hrs by quantitative RT-PCR analysis relative to 1 ng/ml interferon. The series is classed as functional, Hepacivirus hominis, JFH-1, Huh-7.

A word on the EC50: it is the concentration needed to bring the measured effect to its halfway point. Higher therefore signals lower potency in that assay. The term CC50 denotes the concentration giving 50% cytotoxicity. Turning to `C#CCCCO/N=C1/[C@H]2CCN3C(=O)N([C@@H](CC)c4ccccc4)CN3[C@H]2[C@H](O)[C@@H]2O[C@H]12`, it took 3.8 µM to reach a half-maximal effect in series [1] (EC50). The same molecule returned a CC50 in series [2] of more than 50 µM.

Consider `CC(=O)OC[C@H]1OC(CCO/N=C2/[C@H]3CCn4c(=O)n(-c5ccccc5)c(=O)n4[C@H]3[C@H](O)[C@@H]3O[C@H]23)C=C[C@@H]1OC(C)=O` (stereo partly specified), for which the EC50 in series [1] turned out to be 0.7 µM. In series [2], this molecule displayed a CC50 of 9 µM.

In series [1], `O=C1C2C=C(Br)C(CC2OCCCCCCO)[C@]12CO2` (stereo partly specified) displayed an EC50 of 19.6 µM. This molecule returned a CC50 in series [2] of more than 50 µM.

`COc1ccc(O[C@H]2C=C[C@@H](c3ccccc3)O[C@@H]2CO/N=C(\C)CCN2CCc3nc(-c4ccccc4)c(-c4ccccc4)cc3C2)cc1` gave an EC50 in series [1] of 21.1 µM. Further, the cytotoxic concentration (CC50) in series [2] is more than 50 µM.

On to `COc1ccc(O[C@H]2C=C[C@@H](c3ccccc3)O[C@@H]2CO/N=C2/[C@H]3CCn4c(=O)n(-c5ccccc5)c(=O)n4[C@H]3[C@H](O)[C@@H]3O[C@H]23)cc1`, for which the EC50 in series [1] came to 2.6 µM. Also, in series [2], the CC50 was found to be 18 µM.

Take `CC[C@@H](c1ccccc1)N1CN2[C@H]3[C@H](O)[C@@H]4O[C@@H]4/C(=N\OC[C@@H](O)COCc4ccco4)[C@H]3CCN2C1=O`: the EC50 in series [1] came to 2.5 µM. The 50% cytotoxic concentration (CC50) in series [2] was more than 50 µM.

As to `c1ccc(C2NCCc3c2[nH]c2ccccc32)cc1` (stereo unspecified), the EC50 in series [1] is 30 µM. In series [2], this molecule yielded a CC50 of more than 50 µM.

`CCCNC(=O)OC[C@H]1O[C@H](CCO/N=C(\C)CCN2CCc3nc(-c4ccccc4)c(-c4ccccc4)cc3C2)C=C[C@@H]1Oc1ccc(OC)cc1` registered an EC50 in series [1] of 14.2 µM. For the same molecule, in series [2], the CC50 is more than 50 µM.

In series [1], `C#CCCCO/N=C1/C[C@@H](O)[C@@H](O)[C@@H]2[C@@H]3C(=O)N(CCC(=O)OCC)C(=O)[C@@H]3CC[C@@H]12` came in with an EC50 of more than 100 µM. The molecule further came in with a CC50 in series [2] of more than 50 µM.

For the molecule `O=C1C2C=C(I)C(CC2c2ccccc2)[C@]12CO2` (stereo partly specified), the EC50 in series [1] came out at 9.1 µM. In series [2], this molecule came in with a half-maximal cytotoxic concentration (CC50) of more than 50 µM.

Molecule `CO[C@]12C=C(Br)C(CC1c1cccc(C)c1)[C@]1(CO1)C2=O` (stereo partly specified) returned a half-maximal effective concentration (EC50) in series [1] of 8 µM. For the same molecule, the CC50 in series [2] was more than 50 µM.

In series [1], `Cc1cc2c(nc1C)CCCN2C[C@H](C)O/N=C1\[C@H]2CCn3c(=O)n(-c4ccccc4)c(=O)n3[C@H]2[C@H](O)[C@@H]2O[C@H]12` showed an EC50 of 1.5 µM. Also, the 50% cytotoxic concentration (CC50) in series [2] was 39.3 µM.

Turning to `O=C1C2C=C(I)C(CC2OCCCCO)[C@]12CCCO2` (stereo partly specified), the EC50 in series [1] is more than 30 µM. The molecule further returned a CC50 in series [2] of more than 50 µM.

In series [1], `O=C1[C@@]2(CO)C=C(Br)C(CC2c2ccccc2)[C@]12CO2` (stereo partly specified) had an EC50 of 6.6 µM. Besides, the CC50 in series [2] is more than 50 µM.

The molecule `C=CC[C@@H]1C=C[C@H](O/N=C2\[C@H]3CCn4c(=O)n(-c5ccccc5)c(=O)n4[C@H]3[C@H](O)[C@@H]3O[C@H]23)[C@@H](CO)O1` showed an EC50 in series [1] of 7.75 µM. In series [2], half-maximal cytotoxicity (CC50) was put at 35.3 µM.

In series [1], `O=C1C2C=C(I)C(CC2OCCCCCCO)[C@]12CO2` (stereo partly specified) yielded an EC50 of 26.7 µM. The CC50 in series [2] is more than 50 µM.

As to `C[C@@]12COC[C@]13C=C(Br)C(C2)[C@]1(CO1)C3=O`, in series [1], a half-maximal response (EC50) required 12.7 µM. The same molecule returned a CC50 in series [2] of more than 50 µM.

Take `CC(=O)OC[C@H]1O[C@@H](O/N=C2/[C@H]3CCn4c(=O)n(-c5ccccc5)c(=O)n4C3[C@H](O)[C@@H]3O[C@H]23)[C@H](OC(C)=O)[C@@H](OC(C)=O)[C@@H]1OC(C)=O` (stereo partly specified): it took 42.9 µM to reach a half-maximal effect in series [1] (EC50). The molecule also displayed a CC50 in series [2] of more than 50 µM.

For `O=C1C2C=C(Br)C(CC2c2ccccc2)[C@]12CO2` (stereo partly specified), a half-maximal response in series [1] (EC50) required 19.7 µM. For the same molecule, the CC50 in series [2] was more than 50 µM.

In series [1], `Cc1cc(C)c(-c2cc([C@H](C)O/N=C3\[C@H]4CCn5c(=O)n(-c6ccccc6)c(=O)n5C4[C@H](O)[C@@H]4O[C@H]34)on2)c(C)c1` (stereo partly specified) showed an EC50 of less than 0.5 µM. This molecule also yielded a CC50 in series [2] of 19.5 µM. Moreover, the values for the Activity in series [3] and in series [4] were 48.4% and 45.1%, respectively.

`O=C1C2C=C(I)C(CC2OCCCCO)[C@]12CO2` (stereo partly specified) displayed an EC50 in series [1] of 25.7 µM. For the same molecule, in series [2], the half-maximal cytotoxic concentration (CC50) is more than 50 µM.

`C[C@H](O/N=C1\[C@H]2CCn3c(=O)n(-c4ccccc4)c(=O)n3C2[C@H](O)[C@@H]2O[C@H]12)c1cn([C@H](CO)Cc2ccccc2)nn1` (stereo partly specified): the EC50 in series [1] was found to be 7 µM. This molecule yielded a CC50 in series [2] of more than 50 µM.

Regarding `O=c1n(-c2ccccc2)c(=O)n2n1CC[C@@H]1/C(=N\OC[C@@H](O)COCc3ccco3)[C@H]3O[C@H]3[C@@H](O)C12` (stereo partly specified), in series [1], the EC50 was 7 µM. In series [2], this molecule yielded a CC50 of more than 50 µM.

Take `C[C@@H](O/N=C1\[C@H]2CCn3c(=O)n(-c4ccccc4)c(=O)n3C2[C@H](O)[C@@H]2O[C@H]12)c1cn([C@H](CO)Cc2ccccc2)nn1` (stereo partly specified): it took 7.6 µM to reach a half-maximal effect in series [1] (EC50). The same molecule came in with a CC50 in series [2] of more than 50 µM.

In series [1], `C#CCCCO/N=C1/[C@H]2CCN3C(=O)N(c4ccccc4)CN3[C@H]2[C@H](O)[C@@H]2O[C@H]12` returned an EC50 of 1.4 µM. Also, the cytotoxic concentration (CC50) in series [2] is more than 50 µM.

Consider `O=C1[C@@]2(CO)C=C(I)C(CC2c2ccccc2)[C@]12CO2` (stereo partly specified), for which the EC50 in series [1] came to 3.5 µM. This molecule showed a CC50 in series [2] of 27.1 µM. Also, the Activity in series [3] stood at 48.4%; in series [4] it was 45.1%.
